pIC50: −log10 of the molar value.
These compounds were tested against T1, recombinant human GST-Syk (Homo sapiens, UniProt P43405) (assay: Homogeneous Time-Resolved Fluorescence (HTRF) assay for the recombinant human Syk enzyme). Conditions: recombinant human GST-Syk 5 pM, ATP 25 μM, 10-dose titration 10 μM to 0.508 nM; read-out: rhSYK Activity IC50.
T1 construct: purchased Carna Biosciences 08-176
Format: biochemical
In short: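 GST-hSyk fusion protein phosphorylated a peptide for 45 min at room temperature. The reaction was quenched with 2 nM Eu-anti-phosphotyrosine antibody and 70 nM SA-APC in 15 mM Tris pH 7.5, 40 mM EDTA, 0.01% Tween 20. The HTRF signal was read after 30 min.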

SMILES	pIC50
CCC(O)C(O)Cn1cc(-c2cc(C)cc(Nc3cc(C(F)(F)F)ccn3)n2)nn1 (stereo not shown) [Example 10.7, 1,4,5-trideoxy-1-[4-(4-methyl-6-{[4-(trifluoromethyl)pyridin-2-yl]amino}pyridin-2-yl)-1H-1,2,3-triazol-1-yl]pentitol]	7.52
Cc1cc(Nc2cc(C(F)(F)F)ccn2)nc(-c2cn(CC(O)C(O)COc3ccccc3Cl)nn2)c1 (stereo not shown) [Example 10.8, 1-(2-chlorophenoxy)-4-[4-(4-methyl-6-{[4-(trifluoromethyl)pyridin-2-yl]amino}pyridin-2-yl)-1H-1,2,3-triazol-1-yl]butane-2,3-diol]	7.20
CCOC(=O)C(O)C(O)Cn1cc(-c2cc(C)cc(Nc3cc(C(F)(F)F)ccn3)n2)nn1 (stereo not shown) [Example 10.9, ethyl 2,3-dihydroxy-4-[4-(4-methyl-6-{[4-(trifluoromethyl)pyridin-2-yl]amino}pyridin-2-yl)-1H-1,2,3-triazol-1-yl]butanoate]	7.48
Cc1cc(Nc2cc(C(F)(F)F)ccn2)nc(-c2cn(CC3(O)CCCCC3O)nn2)c1 (stereo not shown) [Example 10.10, 1-{[4-(4-methyl-6-{[4-(trifluoromethyl)pyridin-2-yl]amino}pyridin-2-yl)-1H-1,2,3-triazol-1-yl]methyl}cyclohexane-1,2-diol]	7.71
Cc1cc(Nc2cc(C(F)(F)F)ccn2)nc(-c2cn(CC(O)C(C)(C)O)nn2)c1 (stereo not shown) [Example 10.12, 3-methyl-1-[4-(4-methyl-6-{[4-(trifluoromethyl)pyridin-2-yl]amino}pyridin-2-yl)-1H-1,2,3-triazol-1-yl]butane-2,3-diol]	7.63
Cc1cc(Nc2cc(C(F)(F)F)ccn2)nc(-c2cn(CC(O)C(C)O)nn2)c1 (stereo not shown) [Example 10.13, 1-[4-(4-methyl-6-{[4-(trifluoromethyl)pyridin-2-yl]amino}pyridin-2-yl)-1H-1,2,3-triazol-1-yl]butane-2,3-diol]	7.73
Cc1cc(Nc2cc(C(F)(F)F)ccn2)nc(-c2cn(CC(C)(O)CO)nn2)c1 (stereo not shown) [Example 10.14, 2-methyl-3-[4-(4-methyl-6-{[4-(trifluoromethyl)pyridin-2-yl]amino}pyridin-2-yl)-1H-1,2,3-triazol-1-yl]propane-1,2-diol]	8.04
Cc1cc(Nc2nccc(C(F)(F)F)n2)cc(-n2cc(C3(O)CCNC(=O)CC3)nn2)c1 (stereo not shown) [Example 11.4, 5-hydroxy-5-[1-(3-methyl-5-{[4-(trifluoromethyl)pyrimidin-2-yl]amino}phenyl)-1H-1,2,3-triazol-4-yl]azepan-2-one]	6.79

The next compounds have a higher pIC50 than those just listed; values first:

pIC50	SMILES
8.48	Cc1cc(Nc2cc(C(F)(F)F)ccn2)nc(-c2cn([C@@H](C)c3ccc(C(=O)O)cc3)nn2)c1 [Example 9.7, 4-{(1S)-1-[4-(4-methyl-6-{[4-(trifluoromethyl)pyridin-2-yl]amino}pyridin-2-yl)-1H-1,2,3-triazol-1-yl]ethyl}benzoic acid]
8.06	Cc1cc(Nc2cc(C(F)(F)F)ccn2)nc(-c2cn(CC(O)C(O)c3ccccc3)nn2)c1 (stereo not shown) [Example 10.1, 3-(4-(4-Methyl-6-((4-(trifluoromethyl)pyridin-2-yl)amino)pyridin-2-yl)-1H-1,2,3-triazol-1-yl)-1-phenylpropane-1,2-diol]
8.48	Cc1cc(Nc2cc(C(F)(F)F)ccn2)nc(-c2cn(C3CCCC(O)C3O)nn2)c1 (stereo not shown) [Example 10.11, 3-[4-(4-methyl-6-{[4-(trifluoromethyl)pyridin-2-yl]amino}pyridin-2-yl)-1H-1,2,3-triazol-1-yl]cyclohexane-1,2-diol]
8.14	Cc1cc(Nc2cc(C(F)(F)F)ccn2)nc(-c2cn(CC(C)(O)CO)nn2)c1 (stereo not shown) [Example 10.15, 2-methyl-3-[4-(4-methyl-6-{[4-(trifluoromethyl)pyridin-2-yl]amino}pyridin-2-yl)-1H-1,2,3-triazol-1-yl]propane-1,2-diol]
8.21	Cc1cc(Nc2cc(C(F)(F)F)ccn2)nc(-c2cn(CC(C)(O)CO)nn2)c1 (stereo not shown) [Example 10.16, 2-methyl-3-[4-(4-methyl-6-{[4-(trifluoromethyl)pyridin-2-yl]amino}pyridin-2-yl)-1H-1,2,3-triazol-1-yl]propane-1,2-diol]

From patent US9586931B2 (Merck Sharp & Dohme Corp., priority 2012, dated 2017)
